US7217710B2, “Substituted pyrazolopyrimidines” (SmithKline Beecham Corporation, priority 2001, dated 2007)
One block for each molecule: values may come before it.

What was measured:
Assay type in all cases: biochemical
GST-VEGFR2 = target: T1, GST-VEGFR2 (Homo sapiens, UniProt P35968); test: VEGF-R2 Enzyme Assay (VEGF-E2), LANCE method; settings: for IC50: read-out: VEGFR2 PIC50 VEGFR-E2 assay
T1 construct: GST-VEGFR2, baculovirus expressed recombinant constructs of the intracellular domains; made in house

[1] = target: T2, GST-TIE2 (intracellular domains of human TIE2) (Homo sapiens, UniProt Q02763); test: TIE-2 Enzyme Assay (TIE2-E2), LANCE method; settings: for IC50: read-out: TIE2 PIC50 TIE2-E2 assay
T2 construct: made in house
Description: TIE-2 Enzyme Assay (TIE2-E2
The TIE-2 enzyme assay uses the LANCE method (Wallac) and GST-TIE2, baculovirus-expressed recombinant constructs of the intracellular domains of human TIE2 (amino acids 762–1104, GenBank Accession # L06139) tagged by GST). The method measures the ability of the purified enzymes to catalyse the transfer of the γ-phosphate from ATP onto tyrosine residues in a biotinylated synthetic peptide, D1–15 (biotin-C6-LEARLVAYEGWVAGKKKamide). This peptide phosphorylation is detected using the following procedure: for enzyme preactivation, GST-TIE2 is incubated for 2 hours at room temperature with 80 μM ATP, 10 mM MgCl2, 0.1 mg/ml BSA, 0.01% Tween 20 and 1 mM DTT in 100 mM HEPES buffer (pH7.4). 5 nM preactivated GST-TIE2 is incubated for 2 hours at room temperature in 96 well plates with 1 uM D1–15 peptide, 80 uM ATP, 10 mM MgCl2, 0.1 mg/ml BSA, 0.01% Tween 20 and titrated test compound (diluted from a 10 mM stock in DMSO, final DMSO concentration is 2.4%) in 100 mM HEPES (pH7.4). The reaction is stopped by the addition of EDTA (final concentration 45 mM). Streptavidin linked-APC (allophycocyanin, PerkinElmer) and europium-labeled anti-phosphotyrosine antibody (PerkinElmer) are then added at the final concentration of 8 nM and 1 nM, respectively. The APC signal is measured using an Wallac Multilabel 1420 counter. (Wallac Berthold Japan). The percent inhibition of activity is calculated relative to blank control wells. The concentration of test compound that inhibits 50% of activity (IC50) is interpolated using nonlinear regression (Levernberg-Marquardt) and the equation, y=Vmax (1−x/(K+x))+Y2, where “K” is equal to the IC50. The IC50 values are converted to pIC50 values, i.e., −log IC50 in Molar concentration.

[2] = target: T3, catalytic domain of human VEGFR3 (Homo sapiens, UniProt P35916, H890Q); test: VEGFR-3 Homogenous Time-Resolved Fluorescence Assay (VEGFR-3-HTRF); settings: for IC50: read-out: VEGFR3 PIC50 VEGFR-3-HTRF assay
T3 construct: made in house; host or cells: Sf9 insect cells (baculovirus, pFastBac1)
Description: VEGFR—3-Homogenous Time-Resolved Fluorescence Assay (VEGFR-3-HTRF)
This assay assesses Vascular Endothelial Growth Factor 3 (VEGFR3) tyrosine kinase inhibitory activity in substrate phosphorylation assays. The assay examines the ability of small molecule organic compounds to inhibit the tyrosine phosphorylation of a peptide substrate.
The substrate phosphorylation assays use the VEGFR3 catalytic domain, which is expressed in Sf. 9 insect cells as an amino-terminal GST-tagged fusion protein. The catalytic domain of human VEGFR3 (AA residues #819–1298 based upon GenBank Accession #XM003852) is cloned by PCR from human Placenta Marathon Ready cDNA (Clontech). The PCR product is subcloned into pFastBac1 vector containing an N-terminal GST tag. The resulting pFB/GST/VEGFR3icd vector is used to generate a recombinant baculovirus for protein expression. The VEGFR3 catalytic domain translated sequence is:
Autophosphorylation allows enzymes to be fully activated prior to addition to peptide substrates. The assays are performed using enzyme that has been activated by autophosphorylation via preincubation in buffer with ATP and magnesium. Activated enzyme is then diluted and added to titrated compound and the substrate mix.
200 nM VEGFR3 enzyme is activated for 45 minutes at room temperature by incubating the enzyme in buffer containing 100 mM HEPES (pH7.2), 75 μM ATP, 0.3 mM DTT, 0.1 mg/mL BSA, and 10 mM MgCl2. After activation, VEGFR3 is diluted 100-fold into 2× dilution buffer: 200 mM HEPES (pH 7.5), 0.2 mg/mL BSA, 0.6 mM DTT. 20 μL of the diluted enzyme mix is added to 20 μL of 2× substrate mix (150 μM ATP, 20 mM MgCl2, 0.72 μM biotinylated peptide) in the assay plates. Final assay conditions are: 100 mM HEPES (pH 7.2), 75 μM ATP, 10 mM MgCl2, 0.1 mg/mL BSA, 0.3 mM DTT, 0.36 μM biotinylated peptide, and 1 nM VEGFR3 enzyme. Assay plates are incubated for 1.5 hours at room temperature before the addition of 30 μL 100 mM EDTA to the wells to stop the enzymatic reaction. 40 μL/well of HTRF mix are then added to the assay plates for the detection of phosphorylated substrate. Final assay concentrations are: 100 mM HEPES (pH7.2), 0.1 mg/mL BSA, 15 nM streptavidin-labeled allophycocyanin (PerkinElmer), and 1 nM europium-labeled anti-phosphotyrosine antibody (PerkinElmer). Assay plates are left unsealed and are counted in a Wallac Multilabel Counter 1420 (PerkinElmer).
The data for dose responses are plotted as % Control calculated with the data reduction formula 100*(U1–C2)/(C1–C2) versus concentration of compound where U is the unknown value, C1 is the average control value obtained for DMSO , and C2 is the average control value obtained for 0.1M EDTA. Data are fitted to the curve described by: y=((Vmax*x)/(K+x)) where Vmax is the upper asymptote and K is the IC50.

T2 sequence (Q02763 762-1104): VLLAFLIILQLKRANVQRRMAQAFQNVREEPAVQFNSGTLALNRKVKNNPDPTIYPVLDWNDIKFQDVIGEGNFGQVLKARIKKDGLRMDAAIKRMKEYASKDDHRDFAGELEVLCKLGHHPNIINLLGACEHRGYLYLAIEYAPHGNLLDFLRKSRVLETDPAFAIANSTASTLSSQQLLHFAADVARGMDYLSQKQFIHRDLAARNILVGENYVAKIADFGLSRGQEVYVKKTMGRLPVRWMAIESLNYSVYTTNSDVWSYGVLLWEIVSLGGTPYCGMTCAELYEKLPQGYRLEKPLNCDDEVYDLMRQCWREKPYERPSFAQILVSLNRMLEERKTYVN
T1 sequence (P35968 786-1356 limits assumed): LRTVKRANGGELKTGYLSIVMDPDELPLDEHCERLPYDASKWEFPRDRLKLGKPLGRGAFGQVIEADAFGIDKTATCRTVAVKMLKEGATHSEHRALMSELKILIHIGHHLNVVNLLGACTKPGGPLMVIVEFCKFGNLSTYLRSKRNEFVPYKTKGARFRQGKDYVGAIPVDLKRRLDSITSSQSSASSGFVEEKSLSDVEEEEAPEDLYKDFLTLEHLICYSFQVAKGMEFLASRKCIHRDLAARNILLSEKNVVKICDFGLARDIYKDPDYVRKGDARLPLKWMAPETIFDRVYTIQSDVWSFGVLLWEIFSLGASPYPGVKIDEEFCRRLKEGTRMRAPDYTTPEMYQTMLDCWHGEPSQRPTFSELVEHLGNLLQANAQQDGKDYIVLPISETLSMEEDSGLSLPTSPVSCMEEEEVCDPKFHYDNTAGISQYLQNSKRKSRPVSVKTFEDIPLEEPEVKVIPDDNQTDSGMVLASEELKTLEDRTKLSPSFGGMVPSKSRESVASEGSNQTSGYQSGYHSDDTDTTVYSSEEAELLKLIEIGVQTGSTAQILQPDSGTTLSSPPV
T3 sequence (P35916 with tags, fused parts or gaps isoform P35916-1 H890Q): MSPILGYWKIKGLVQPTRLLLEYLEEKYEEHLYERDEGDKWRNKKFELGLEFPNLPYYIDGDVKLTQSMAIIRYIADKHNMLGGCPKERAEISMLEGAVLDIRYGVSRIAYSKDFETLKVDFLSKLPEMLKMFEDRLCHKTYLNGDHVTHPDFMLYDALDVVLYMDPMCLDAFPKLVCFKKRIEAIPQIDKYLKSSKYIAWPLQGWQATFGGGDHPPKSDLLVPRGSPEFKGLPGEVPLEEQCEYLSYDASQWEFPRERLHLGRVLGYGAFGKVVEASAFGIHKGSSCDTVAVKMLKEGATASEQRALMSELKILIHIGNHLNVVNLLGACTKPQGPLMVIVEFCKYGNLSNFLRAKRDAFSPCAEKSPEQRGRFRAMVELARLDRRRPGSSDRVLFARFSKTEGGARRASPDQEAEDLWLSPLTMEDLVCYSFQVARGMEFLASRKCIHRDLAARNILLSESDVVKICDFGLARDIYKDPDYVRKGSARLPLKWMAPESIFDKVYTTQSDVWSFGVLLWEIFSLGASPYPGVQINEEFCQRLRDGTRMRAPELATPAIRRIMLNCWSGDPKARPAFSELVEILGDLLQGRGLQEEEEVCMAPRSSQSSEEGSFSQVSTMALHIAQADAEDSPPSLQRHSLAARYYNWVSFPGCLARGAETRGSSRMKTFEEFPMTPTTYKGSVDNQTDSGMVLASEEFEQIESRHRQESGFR

Molecule: 1-(2-fluoro-5-trifluoromethyl-phenyl)-3-(4-{methyl-6-(2-oxopyrrolidin-2-yl)-1H-pyrazolo[3,4-d]pyrimidin-3-yl}-phenyl)-urea [Example 61]
VEGFR2 PIC50 VEGFR-E2 assay (GST-VEGFR2): ++ (++ = PIC50 = 6.00 to less than 7.00) | TIE2 PIC50 TIE2-E2 assay [1]: +++ (+++ = PIC50 = 7.00 to less than 7.40) | VEGFR3 PIC50 VEGFR-3-HTRF assay [2]: + (+ = PIC50 = 5.00 to less than 6.00)

Molecule: 1-(Chloro-trifluoromethyl-phenyl)-3-{4-[methyl-(2-morpholin-4-yl -ethylamino)-1H-pyrazolo[3,4-d]pyrimidin-3-yl]-phenyl}-urea [Example 37]
VEGFR2 PIC50 VEGFR-E2 assay (GST-VEGFR2): −− (−− = PIC50 less than 5.00) | TIE2 PIC50 TIE2-E2 assay [1]: +++ (+++ = PIC50 = 7.00 to less than 7.40) | VEGFR3 PIC50 VEGFR-3-HTRF assay [2]: + (+ = PIC50 = 5.00 to less than 6.00)

Molecule: 2,5-Dichloro-{4-{1-methyl-6-[3-(4-methyl-piperazin-1yl) -propylamino]-1H-pyrazolo[3,4-d]pyrimidin-3-yl}-phenyl}-thiophene-3-sulfonamide [Example 66]
VEGFR2 PIC50 VEGFR-E2 assay (GST-VEGFR2): −− (−− = PIC50 less than 5.00) | TIE2 PIC50 TIE2-E2 assay [1]: +++ (+++ = PIC50 = 7.00 to less than 7.40) | VEGFR3 PIC50 VEGFR-3-HTRF assay [2]: −− (−− = PIC50 less than 5.00)

Molecule: COCCNc1ncc2c(-c3ccc(NC(=O)Nc4cc(C(F)(F)F)ccc4F)cc3)nn(C)c2n1 [Example 32]
VEGFR2 PIC50 VEGFR-E2 assay (GST-VEGFR2): + (+ = PIC50 = 5.00 to less than 6.00) | TIE2 PIC50 TIE2-E2 assay [1]: +++ (+++ = PIC50 = 7.00 to less than 7.40) | VEGFR3 PIC50 VEGFR-3-HTRF assay [2]: + (+ = PIC50 = 5.00 to less than 6.00)

Molecule: Cn1nc(-c2ccc(NC(=O)Nc3cc(C(F)(F)F)cc(C(F)(F)F)c3)cc2)c2cnc(NCCN3CCOCC3)nc21 [Example 41, 1-(Bis-trifluoromethyl-phenyl)-3-{4-[1-methyl-6-(2-morpholin-4-yl-ethylamino)-1H-pyrazolo[3,4-d]pyrimidin-3-yl]-phenyl}-urea]
VEGFR2 PIC50 VEGFR-E2 assay (GST-VEGFR2): −− (−− = PIC50 less than 5.00) | TIE2 PIC50 TIE2-E2 assay [1]: ++ (++ = PIC50 = 6.00 to less than 7.00)

Molecule: Cn1nc(-c2ccc(NC(=O)Nc3cc(C(F)(F)F)cc(C(F)(F)F)c3)c(F)c2)c2cnc(NCCN3CCOCC3)nc21 [Example 53, 1-(3,5-Bis-trifluoromethyl-phenyl)-3-{2-fluoro-[methyl-(2-morpholin-4-yl-ethylamino)-1H-pyrazolo[3,4-d]pyrimidin-3-yl]-phenyl}-urea]
VEGFR2 PIC50 VEGFR-E2 assay (GST-VEGFR2): + (+ = PIC50 = 5.00 to less than 6.00) | TIE2 PIC50 TIE2-E2 assay [1]: +++ (+++ = PIC50 = 7.00 to less than 7.40)

Molecule: CN(CCN1CCOCC1)c1ncnc2[nH]nc(-c3ccc(NC(=O)Nc4cc(C(F)(F)F)ccc4F)c(C(F)(F)F)c3)c12 [Example 56, 1-(2-Fluoro-5-trifluoromethyl-phenyl)-3-{[methyl-(2-morpholin-4-yl-ethylamino)-1H-pyrazolo[3,4-d]pyrimidin-3-yl]-(2-trifluoromethyl-phenyl)}-urea]
VEGFR2 PIC50 VEGFR-E2 assay (GST-VEGFR2): + (+ = PIC50 = 5.00 to less than 6.00) | TIE2 PIC50 TIE2-E2 assay [1]: + (+ = PIC50 = 5.00 to less than 6.00)

Molecule: Cn1nc(-c2ccc(NS(=O)(=O)c3cccc(Cl)c3Cl)cc2)c2cnc(NCCCN3CCCC3=O)nc21 [Example 67]
IC50 (GST-VEGFR2): 1 to 10 µM | IC50 [1]: 1 to 10 µM | IC50 [2]: 1 to 10 µM

Molecule: CC(=O)Nc1ncc2c(-c3ccc(NC(=O)Nc4cc(C(F)(F)F)ccc4F)cc3)nn(C)c2n1 [Example 70]
IC50 (GST-VEGFR2): 1 to 10 µM | IC50 [1]: 0.1 to 1 µM

Molecule: CC(=O)Nc1ncc2c(-c3ccc(NS(=O)(=O)c4cccc(Cl)c4Cl)cc3)nn(C)c2n1 [Example 71]
IC50 (GST-VEGFR2): 1 to 10 µM | IC50 [1]: 1 to 10 µM | IC50 [2]: 0.1 to 1 µM

Molecule: CC(C)n1nc(-c2ccc(NS(=O)(=O)c3cccc(Cl)c3Cl)cc2)c2cnc(NCCN3CCOCC3)nc21 [Example 77, 2,3-Dichloro-N-{4-(1-isopropyl-6-(2-morpholin-4-yl-ether)-1H -pyrazolo[3,4-d]pyrimidin-3-yl}-phenyl}-benzenesulfonamide]
IC50 (GST-VEGFR2): 1 to 10 µM | IC50 [1]: 0.1 to 1 µM | IC50 [2]: 1 to 10 µM

Molecule: Cn1nc(-c2ccc(NC(=O)Nc3cc(C(F)(F)F)ccc3F)cc2)c2cnc(NCCCCCO)nc21 [Example 82]
IC50 (GST-VEGFR2): > 10 µM | IC50 [1]: 0.0398 to 0.1 µM | IC50 [2]: > 10 µM

Molecule: Cn1nc(-c2ccc(NC(=O)Nc3cc(C(F)(F)F)ccc3F)cc2)c2cnc(NC(CO)CO)nc21 [Example 83]
IC50 (GST-VEGFR2): > 10 µM | IC50 [1]: 0.1 to 1 µM

Molecule: Cn1nc(-c2ccc(NC(=O)Nc3cc(C(F)(F)F)ccc3F)cc2)c2cnc(NCCCNS(C)(=O)=O)nc21 [Example 96, N-[3-(3-{4-[3-(2-Fluoro-5-trifluoromethyl-phenyl)-ureido]-phenyl}-1-methyl-1H-pyrazolo[3,4-d]pyrimidin-6-ylamino)-propyl]-methanesulfonamide]
IC50 (GST-VEGFR2): 1 to 10 µM | IC50 [1]: 0.0398 to 0.1 µM | IC50 [2]: 1 to 10 µM

Continued, values first:

IC50 (GST-VEGFR2): 1 to 10 µM | IC50 [1]: 0.0398 to 0.1 µM | IC50 [2]: 1 to 10 µM
Molecule: Cn1nc(-c2ccc(NC(=O)Nc3cc(C(F)(F)F)ccc3F)cc2)c2cnc(NCCN3CCOCC3)nc21 [Example 31, 1-(2-Fluoro-5-trifluoromethyl-phenyl)-3-{4-[1-methyl-6-(2-morpholin-4-yl-ethylamino)-1H-pyrazolo[3,4-d]pyrimidin-3-yl]-phenyl}urea]

IC50 (GST-VEGFR2): 1 to 10 µM | IC50 [1]: 0.0398 to 0.1 µM | IC50 [2]: 0.1 to 1 µM
Molecule: Cn1nc(-c2ccc(NC(=O)Nc3cc(C(C)(C)C)on3)cc2)c2cnc(NCCN3CCOCC3)nc21 [Example 35]

IC50 (GST-VEGFR2): 1 to 10 µM | IC50 [1]: 0.1 to 1 µM | IC50 [2]: 1 to 10 µM
Molecule: Cn1nc(-c2ccc(NC(=O)Nc3ccc4ccccc4c3)cc2)c2cnc(NCCN3CCOCC3)nc21 [Example 39, 1-{4-[1-Methyl-6-(2-morpholin-4-yl-ethylamino)-1H-pyrazolo[3,4-d]pyrimidin-3-y]-phenyl}-3-naphthalen-2-yl-urea]

IC50 (GST-VEGFR2): > 10 µM | IC50 [1]: 0.1 to 1 µM
Molecule: Cc1cc(-c2nn(C)c3nc(NCCN4CCOCC4)ncc23)ccc1NC(=O)Nc1ccc2ccccc2c1 [Example 46, 1-{2-Methyl-4-[1-methyl-6-(2-morpholin-4-yl-ethylamino)-1H -pyrazolo[3,4-d]pyrimidin-3-yl]-phenyl}-3-naphthalen-2-yl-urea]

IC50 (GST-VEGFR2): 1 to 10 µM | IC50 [1]: ≤ 0.0398 µM | IC50 [2]: 1 to 10 µM
Molecule: Cn1nc(-c2ccc(NC(=O)Nc3cc(C(F)(F)F)ccc3F)c(F)c2)c2cnc(NCCN3CCOCC3)nc21 [Example 49]

IC50 (GST-VEGFR2): > 10 µM | IC50 [1]: 0.1 to 1 µM
Molecule: Cn1nc(-c2ccc(NC(=O)Nc3ccc4ccccc4c3)c(F)c2)c2cnc(NCCN3CCOCC3)nc21 [Example 55]
